Test results as given in paper PMC10629583, “Specific inhibition of an anticancer target, polo-like kinase 1, by allosterically dismantling its mechanism of substrate recognition” (Proceedings of the National Academy of Sciences of the …, 2023).
Entries after “also recorded” stand apart in the source; their conditions may differ. Like-named read-outs stand apart in the source and are kept apart here. Where no end group is shown, it is not given here. [ ]: non-standard residue; d: D form. pT = C[C@@H](OP(=O)(O)O)[C@H](N)C(=O)O

Experiments:
[1] = Solubility in PBS (imaging of insoluble particles, dynamic light scattering); type: physicochemical; conditions: PBS buffer (pH 7.4)
Experimental: All samples were analyzed after adjusting the concentration to 100 μM solution in the PBS buffer (pH 7.4) containing 1% DMSO. The measurements were carried out at 25 °C using the DynaPro NanoStar system (Wyatt Technology). The intensity of the scattered light was measured as a function of time, and the resulting data were used to calculate the size and distribution of the particles in the sample. Collected data were analyzed using the DYNAMICS software to calculate the mean size and polydispersity index of the particles in the sample. At least three repeat measurements were performed to ensure that the results were accurate and reproducible.
Fig. S1. Solubility and activity of Allopole and its related compounds. (A) Images showing insoluble
particles of 200 µM of the indicated compounds dissolved in the PBS buffer. The aggregates of […]

full-length Plk1 [2] = molecular target: T1, full-length Plk1 (Homo sapiens, UniProt P53350); conditions: total lysates from HEK293A cells expressing full-length Plk1; ref Park, J.E., et al. (1); read-out: Anti-Plk1 (full length) ELISA (IC50) Mean ± SEM; cited from earlier work
T1 construct: expressed in transfected cells; host or cells: HEK293A cells infected with adenovirus; total lysate

L363 cells [3] = system: L363 cells; design: method as in Park, J.E., et al. (1); conditions: MTS, 48 h treatment, ref Park, J.E., et al. (1), cited from earlier work
human His-Plk1 = molecular target: T2, human His-Plk1 (Homo sapiens, UniProt P53350); experiment: In vitro Plk1 kinase assay (casein, 32P); type: biochemical; conditions: casein substrate
T2 construct: His (N); purchased Sino Biological; host or cells: Sf9
Experimental: Kinase reactions were carried out in two steps. First, Sf9-purified 0.2 µg of human His-Plk1 (Sino Biological) was preincubated in a kinase cocktail [50 mM Tris-Cl (pH 7.5), 10 mM MgCl2, 2 mM dithiothreitol, 2 mM EGTA, and 27 mM p-nitrophenylphosphate] in the presence of either Allopole-A or p-13mer PBIP peptide for 20 min at 25 °C. The samples were then added with 1 µg of dephosphorylated casein (Sigma) and 1.25 µM of ATP (1.25 µCi of [γ^32P] ATP, 1Ci = 37 GBq) and reacted for additional 30 min at 30 °C. The reactions were terminated by the addition of 5× Laemmli SDS sample buffer, separated by 10% SDS-PAGE, and analyzed by autoradiography. To quantify the γ^32P signals, appropriate bands were excised from dried SDS-PAGE gels and analyzed by a liquid scintillation counter (Beckman model LS 6500).

full-length Plk1 [4] = molecular target: T1, full-length Plk1; experiment: ELISA-based PBD1-binding inhibition assay; conditions: total lysates from HEK293A cells expressing full-length Plk1; biotinylated PBIP1 p-T78 peptide; read-out: Anti-Plk1 (full length) ELISA (IC50) Mean ± SEM
L363 cells [5] = experiment: MTS cell viability assay, L363 cells; type: cell-based; conditions: 48 h treatment, read-out: Cell efficacy (GI50) Mean ± SD
Plk1 PBD (PBD1) = molecular target: T3, Plk1 PBD (PBD1) (Homo sapiens, UniProt P53350); experiment: FP-based inhibition assay, PBD1; type: binding; conditions: FP, bacterially expressed purified PBD, FITC-ligand 15 nM, PBD at EC85; read-out: PBD1 IC50 ± SD
T3 construct: constructs expressing PBD1 (residues 345–603) WT (pKM7650); His; TEV site (N); made in house; host or cells: bacteria (E. coli)
Experimental: (§1) FP assays were carried out essentially as described previously ([35], [36]). […] All the samples were analyzed approximately 30 min after reaction in a 384-well format using the SpectraMax Paradigm multimode microplate detection platform (Molecular Devices). Data were analyzed after carrying out at least three independent experiments using GraphPad Prism software version 8.

Plk2 PBD (PBD2) = molecular target: T4, Plk2 PBD (PBD2) (Homo sapiens, UniProt Q9NYY3); experiment: FP-based inhibition assay, PBD2; type: binding; conditions: bacterially expressed purified PBD, FITC-ligand 15 nM, PBD at EC85
T4 construct: Purification of PBD2-His (355–685) (pKM3358) and its S652F mutant (pKM7980); His (C); made in house; host or cells: bacteria (E. coli)
T4 sequence (Q9NYY3 355-685): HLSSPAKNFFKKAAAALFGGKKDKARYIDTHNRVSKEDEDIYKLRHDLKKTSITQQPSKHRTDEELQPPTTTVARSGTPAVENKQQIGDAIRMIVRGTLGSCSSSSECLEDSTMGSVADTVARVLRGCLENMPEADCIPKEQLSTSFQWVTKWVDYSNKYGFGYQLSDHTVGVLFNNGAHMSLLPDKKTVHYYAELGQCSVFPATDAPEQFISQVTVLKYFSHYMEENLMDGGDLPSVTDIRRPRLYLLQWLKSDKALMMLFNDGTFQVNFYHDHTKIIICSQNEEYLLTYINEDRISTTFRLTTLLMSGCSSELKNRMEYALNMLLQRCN
Experimental: as §1

Plk3 PBD (PBD3) = molecular target: T5, Plk3 PBD (PBD3) (Homo sapiens, UniProt Q9H4B4); experiment: FP-based inhibition assay, PBD3; type: binding; conditions: bacterially expressed purified PBD, FITC-ligand 15 nM, PBD at EC85
T5 construct: MBP-PBD3-His (335–646) (pKM3359) and its A612F (pKM7981); His (C); made in house; host or cells: bacteria (E. coli)
T5 sequence (Q9H4B4 335-646): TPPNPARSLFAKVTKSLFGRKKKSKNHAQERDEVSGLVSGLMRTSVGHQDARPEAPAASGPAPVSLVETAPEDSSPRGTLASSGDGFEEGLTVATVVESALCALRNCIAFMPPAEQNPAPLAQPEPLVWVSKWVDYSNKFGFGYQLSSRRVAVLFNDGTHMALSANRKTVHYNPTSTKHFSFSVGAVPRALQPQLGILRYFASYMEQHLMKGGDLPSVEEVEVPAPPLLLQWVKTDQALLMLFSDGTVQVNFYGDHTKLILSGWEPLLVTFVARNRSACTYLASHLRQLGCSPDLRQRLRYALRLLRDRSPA
Experimental: FP assays were carried out essentially as described previously ([35], [36]). FITC-conjugated ligands (15 nM) were mixed with PBDs at their EC85 concentrations. All the samples were analyzed approximately 30 min after reaction in a 384-well format using the SpectraMax Paradigm multimode microplate detection platform (Molecular Devices). Data were analyzed after carrying out at least three independent experiments using GraphPad Prism software version 8.

[6] = Conversion of Allopole to Allopole-A in buffers ± GSH (LC-MS); type: physicochemical; conditions: 100 µM Allopole, room temperature, 1 h
Experimental: High-performance liquid chromatography (HPLC)/high-resolution mass spectrometry was used to determine the products derived from investigational drugs incubated under various conditions by measuring their exact masses. Thereafter, 20 μL aliquots of several drug preparations in either DMSO or aqueous reaction solutions were diluted 2:1 in ethanol, followed by centrifugation at 15,000 × g for 5 min. The supernatant was then injected on a Thermo Vanquish liquid chromatograph coupled to a Thermo Q Exactive Orbitrap mass spectrometer (Thermo Fisher Scientific). The conditions for the analysis are listed as follows.
The analytes were identified using the Dmass between the predicted and measured exact monoisotopic mass for the protonated molecular ions applied to the empirical formula algorithm in the Qual Browser application of the Xcalibur software (Themo Scientific). Selected ions from the base peak chromatogram were extracted for integration of peak areas. The relative amounts of each analyte to the sum total were calculated to estimate conversion of and prodrug under the specific conditions to breakdown products.
Table S2. Conversion of Allopole to Allopole-A under various buffer conditions, room
Buffers* Compounds detected
Allopole-A Allopole-A (-S) Allopole (-Cl) Allopole
* Buffer #1: 20 mM Tris (pH 8.0), 50 mM NaCl, 1 mM EDTA, 1% DMSO
Buffer #2: 1 x PBS (pH 7.4), 1 mM EDTA, 1% DMSO
Buffer #3: 20 mM HEPES (pH 7.0), 50 mM NaCl, 1 mM EDTA, 1% DMSO
Samples were prepared by incubating 100 µM of Allopole in the indicated buffer conditions in the
absence or presence of 5 mM GSH for 1 h at room temperature. Note that in the absence of GSH,

[7] = Buffer #1 (20 mM Tris pH 8.0), no GSH
[8] = Buffer #2 (1 x PBS pH 7.4), no GSH
[9] = Buffer #3 (20 mM HEPES pH 7.0), no GSH

T1 sequence (P53350 whole entry): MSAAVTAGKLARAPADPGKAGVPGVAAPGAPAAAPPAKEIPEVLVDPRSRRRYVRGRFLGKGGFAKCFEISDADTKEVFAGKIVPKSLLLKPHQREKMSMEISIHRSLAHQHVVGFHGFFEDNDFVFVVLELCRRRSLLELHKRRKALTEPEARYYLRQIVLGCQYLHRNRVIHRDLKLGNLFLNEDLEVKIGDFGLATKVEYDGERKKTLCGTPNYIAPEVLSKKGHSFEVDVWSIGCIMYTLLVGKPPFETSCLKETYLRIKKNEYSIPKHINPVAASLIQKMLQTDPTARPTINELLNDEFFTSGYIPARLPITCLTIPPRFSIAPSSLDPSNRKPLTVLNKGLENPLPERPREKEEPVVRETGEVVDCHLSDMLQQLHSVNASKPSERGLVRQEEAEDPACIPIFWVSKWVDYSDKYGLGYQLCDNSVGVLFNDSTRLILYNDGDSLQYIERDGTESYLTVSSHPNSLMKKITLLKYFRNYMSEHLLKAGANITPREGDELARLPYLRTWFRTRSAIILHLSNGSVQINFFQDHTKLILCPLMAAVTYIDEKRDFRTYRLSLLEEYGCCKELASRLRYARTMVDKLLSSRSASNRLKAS
T3 sequence (P53350 345-603): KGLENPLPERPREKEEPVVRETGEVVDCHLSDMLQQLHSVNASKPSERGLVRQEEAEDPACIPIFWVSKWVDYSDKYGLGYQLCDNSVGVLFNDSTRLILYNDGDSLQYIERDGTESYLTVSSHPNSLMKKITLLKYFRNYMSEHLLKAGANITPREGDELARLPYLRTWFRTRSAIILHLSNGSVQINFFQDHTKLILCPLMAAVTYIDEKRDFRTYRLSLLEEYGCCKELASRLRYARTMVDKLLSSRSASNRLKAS
T2 sequence (P53350 whole entry): as the sequence (P53350 whole entry) above

CCCn1c(=O)c2sc(C)cc2n2c(Sc3c([N+](=O)[O-])ncn3C)nnc12 [compound 4]
Solubility (in words) [1]: lower-than-acceptable solubility; also recorded: low solubility
IC50 (full-length Plk1 [2]): > 50 µM
GI50 (L363 cells [3]; read-out: Cell efficacy (GI50) Mean ± SD): 4.88 ± 0.1 µM

CETFDPPLHSpTAI (CETFDPPLHS[pT]AI) [p-13mer, phospho-13mer ligand derived from the PBIP1 p-T78 motif, reference compound]
Effect on His-Plk1 kinase activity in vitro (in words) (human His-Plk1): increased it

CCCn1c(=O)c2oc3cccc(F)c3c2n2c(Sc3c([N+](=O)[O-])ncn3C)nnc12 [compound 10]
IC50 (full-length Plk1 [4]): > 50 µM
GI50 (L363 cells [5]): 7.53 ± 0.43 µM

CCCn1c(=O)c2sc(C)cc2n2c(=S)[nH]nc12 [compound 3]
IC50 (Plk1 PBD (PBD1)): 0.0102 µM
PBD2 IC50 ± SD (Plk2 PBD (PBD2)): N. S.
PBD3 IC50 ± SD (Plk3 PBD (PBD3)): N. S.
Solubility (in words) [1]: lower-than-acceptable solubility
IC50 (full-length Plk1 [2]): 2.15 µM
Cell efficacy (GI50) Mean ± SD (L363 cells [3]): failed to induce any significant antiproliferation effect; also recorded: N. S

CCCn1c(=O)c2sc(Cl)cc2n2c(Sc3c([N+](=O)[O-])ncn3C)nnc12 [compound 14]
IC50 (full-length Plk1 [4]): > 50 µM
GI50 (L363 cells [5]): 6.04 ± 0.17 µM

CCCn1c(=O)c2oc3ccccc3c2n2c(Sc3c([N+](=O)[O-])ncn3C)nnc12 [compound 8]
IC50 (full-length Plk1 [4]): > 50 µM
GI50 (L363 cells [5]): 8.31 ± 0.56 µM

CCCn1c(=O)c2sccc2n2c(Sc3c([N+](=O)[O-])ncn3C)nnc12 [compound 12]
IC50 (full-length Plk1 [4]): > 50 µM
GI50 (L363 cells [5]): 8.4 ± 0.74 µM
Solubility (in words) [1]: moderately; also recorded: moderate

Cn1cnc([N+](=O)[O-])c1Sc1nnc2n(CC3CC3)c(=O)c3sccc3n12 [Allopole (-Cl)]
Compounds detected [6, 7]: 0.0 µmol/L
Compounds detected, % of total [6, 7]: 0.0%
Compounds detected, pk area [6, 7]: 4.85E+04
Compounds detected ([6]; Buffer #1 + 5 mM GSH): 0.5 µmol/L
Compounds detected, % of total ([6]; Buffer #1 + 5 mM GSH): 0.5%
Compounds detected, pk area ([6]; Buffer #1 + 5 mM GSH): 6.89E+06
Compounds detected [6, 8]: 0.0 µmol/L
Compounds detected, % of total [6, 8]: 0.0%
Compounds detected, pk area [6, 8]: 2.42E+04
Compounds detected ([6]; Buffer #2 + 5 mM GSH): 0.3 µmol/L
Compounds detected, % of total ([6]; Buffer #2 + 5 mM GSH): 0.3%
Compounds detected, pk area ([6]; Buffer #2 + 5 mM GSH): 2.57E+06
Compounds detected [6, 9]: 0.0 µmol/L
Compounds detected, % of total [6, 9]: 0.0%
Compounds detected, pk area [6, 9]: 0.00E+00
Compounds detected ([6]; Buffer #3 + 5 mM GSH): 0.4 µmol/L
Compounds detected, % of total ([6]; Buffer #3 + 5 mM GSH): 0.4%
Compounds detected, pk area ([6]; Buffer #3 + 5 mM GSH): 1.11E+06

CCCn1c(=O)c2sc(C(C)(C)C)cc2n2c(Sc3c([N+](=O)[O-])ncn3C)nnc12 [compound 16]
IC50 (full-length Plk1 [4]): > 50 µM
GI50 (L363 cells [5]): 4.19 ± 0.15 µM
Solubility (in words) [1]: moderately; also recorded: moderate

CCCn1c(=O)c2sc3ccccc3c2n2c(Sc3c([N+](=O)[O-])ncn3C)nnc12 [compound 18]
IC50 (full-length Plk1 [4]): > 50 µM
GI50 (L363 cells [5]): 7.05 ± 0.27 µM
